We go through four compounds from US9724348B2, “Crystalline forms” (VM Therapeutics LLC, priority 2013, dated 2017).

Series [1] in a line: Competitive slurries of polymorphic forms. In kind it is physicochemical. Particulars: competitive slurries in IPA, IPA and water, and acetone at ambient temperature and about 40° C.; all gave complete conversion to Form 2. The protocol:
The DSC of Form 2 has a single endotherm at about 160° C. Competitive slurries in IPA, IPA and water, and acetone at ambient temperature and about 40° C., all results in complete conversion to Form 2.

Another series deals with CCI rats. Briefly: Chronic Constriction Injury (CCI) model of neuropathic pain in rat, von Frey paw withdrawal threshold. In kind it is in vivo. The source says:
Chronic Constriction Injury (CCI) Model of Neuropathic Pain in Rat. The CCI model is one of the most commonly used mono-neuropathic pain model firstly described in details by Bennett and Xie (Bennett G J, Xie Y K. Pain. 1988; 33(1):87-107). It mimics important clinical chronic pain symptoms such as mechanical allodynia and thermal hyperalgesia. Chronic constriction injury of the sciatic nerve was produced by tying four loose ligatures around the left sciatic nerve according to the method of Bennett and Xie. […] Calibrated von Frey filaments were used to determine the lowest mechanical (tactile) threshold required to evoke a brisk paw withdrawal reflex in the rat hindpaws. Rats were allowed to acclimatize in wire mesh cages for 15-20 min prior to von Frey testing. Assessment of paw withdrawal thresholds (PWTs) using von Frey filaments was undertaken prior to CCI-surgery (pre-surgery baseline on day 0). Before the drug dosing on day 14, the pre-dose baseline was recorded for each rat. […] Drug-naïve CCI-rats (n=4-6 per group) were used. The oral (PO) gavage vehicle was either 10% (w/v) Povidone K25 in water for PO dosing, or 18% (w/v) CrosPovidone in water for PO dosing, or 0.5% CMC-Na/0.1% Tween 80 in distilled water for PO dosing. The positive control gabapentin was dissolved in the vehicle and orally given at 100 mg/kg (by oral gavage). Test article was dissolved or suspended in the vehicle and orally given at 25, 50, 100 and 150 mg/kg. Each CCI-rat was administered a single oral dose of test article, gabapentin or vehicle control, 2 hours before assessment of PWT.

The subject of a further series is anxiety disorders. The conditions noted are these: human clinical studies; cited from earlier work.
A further series deals with SNL rats. In words: Spinal Nerve Ligation (SNL) mono-neuropathic pain model in rat, von Frey paw withdrawal threshold. In kind it is in vivo. The conditions noted are these: oral gavage, dose-dependent. The protocol:
Spinal Nerve Ligation (SNL) Mono-Neuropathic Pain Model in Rat. The surgical procedure will be performed according to the method firstly described by Kim and Chung (Kim S H, Chung J M. Pain. 1992; 50(3):355-63.). This procedure will result in tactile allodynia in the left hindpaw. […] The dose-response anti-allodynia effects of test compound: on day 14 after surgery, rats were treated with test article at one of four doses, vehicle or positive control by oral gavage, and PWT was determined by calibrated von Frey filaments at time points of 0 (right before the drug dosing, Pre-Dose Baseline), 0.5, 1, 2, 4 and 6 hr. The anti-allodynia effects of repeated administration of test article: Administration of test article was started on day 7 after surgery, once a day for 7 days. PWT was determined by calibrated von Frey filaments, 2 hour after test article dosing each day. After 7 days dosing, the measurement were continued, every other day without compound dosing for another 7 days. PWT was determined at the time points as given above.

The subject of series [2] is rat CFA-induced inflammatory pain. Briefly: Rat CFA-induced inflammatory pain model. The class given is in vivo. The conditions noted are these: oral dose, FIG. 15. The protocol: Rat CFA-Induced Inflammatory Pain Model. Hyperalgesia was induced by subcutaneously injecting […] of CFA (Sigma-Aldrich, St. Louis, Mo., USA) into the plantar surface of the left hind paw of the rats using a 30-gauge hypodermic needle under sevoflurane anesthesia. The classical signs of inflammation, including edema and redness, for up the last day of tests were recorded. To assess the effect of test article on CFA-induced inflammatory pain, the rats were anesthetized with sevoflurane 3 hours after CFA injection and then orally dosed with test article (n=6) or vehicle (n=6) or positive control. Paw withdrawal latencies (thermal hyperalgesia) are measured before and at 2 and 4 hours after CFA injection. Mechanical thresholds were also measured in the same way with either the compound of current invention (n=6) or vehicle (n=6) or positive control, Naproxen (n=6) at similar different time points (for example, 1 and 3 hour). The noxious heat and mechanical thresholds were separately measured in each group of rats. The threshold was measured 3-5 times in each rat and then averaged. Stimulus interval was 5 min.

Series [3] can be described thus: Solid form conversion on drying or during DSC. In kind it is physicochemical. Particulars: drying at 80° C. or during a DSC experiment. The protocol:
Also, Form 5 can be possibly isostructural with Form 2 or Form 2′, or the differences between these forms may relate to the presence or absence of a particular amount of surface water.
Form 5 may convert to a different form (Form 2′) which has a similar X-ray pattern to Form 2 on drying (80° C.), as shown in Table below and FIG. 11 (XRPD), FIG. 12 (^1H-NMR), and FIG. 13 (DSC).

With `Cc1nc2ccccn2c(=O)c1CCN1CCC(C(=O)c2ccc(F)cc2)CC1` [Form 2, 3-(2-{4-[(4-fluorophenyl)carbonyl]piperidin-1-yl}ethyl)-2-methyl-4H-pyrido[1,2-a]pyrimidin-4-one], the “thermodynamic stability of crystalline form” value in series [1] is recorded as “most thermodynamically stable form”.

Consider `NCC1(CC(=O)O)CCCCC1` [gabapentin, reference compound], for which, in the series with CCI rats (CCI rats after single oral dose), the “drowsiness, motor incoordination or other abnormality observed” value was “drowsiness or motor incoordination”.

As for `Cc1nc2ccccn2c(=O)c1CCN1CCC(C(=O)c2ccc(F)cc2)CC1` [Compound 10, 3-(2-{4-[(4-fluorophenyl)carbonyl]piperidin-1-yl}ethyl)-2-methyl-4H-pyrido[1,2-a]pyrimidin-4-one], in the series on anxiety disorders, the anti-anxiety effects result is on record as “did not show any dose-related anti-anxiety effects” and the safety in human entry is “safe in human”. Besides, in the series with SNL rats, the “mechanical allodynia (paw withdrawal threshold)” value is “significantly reduced mechanical allodynia”. Moreover, the “analgesic effect compared with positive control Naproxen” value in series [2] is on record as “more efficacious than positive control Naproxen”. The “potency relative to positive control gabapentin” value in the series with CCI rats (CCI rats, oral, gabapentin 100 mg/kg) is reported as “more than 100 time”. The “mechanical allodynia (paw withdrawal threshold)” value in the series on CCI rats (CCI rats, single oral dose 25, 50, 100 and 150 mg/kg, PWT 2 hours after dosing, dose-dependent, FIG. 14) is “significantly reduced mechanical allodynia”. The “drowsiness, motor incoordination or other abnormality observed” value with CCI rats (rat, in vivo, po) is “no such effect or other abnormality was observed”.

Consider `Cc1nc2ccccn2c(=O)c1CCN1CCC(C(=O)c2ccc(F)cc2)CC1` [Form 5, 3-(2-{4-[(4-fluorophenyl)carbonyl]piperidin-1-yl}ethyl)-2-methyl-4H-pyrido[1,2-a]pyrimidin-4-one], for which, in series [3], the “solid form stability on drying” value is “can convert to a Form 2′ on drying”.
